Measured values from the RepoRT retention time repository.

Experiment: Waters ACQUITY UPLC BEH C18, 100 × 2.1 mm, 1.7 µm, 40 °C, 0.3 to 0.4 mL/min, estimated dead time 0.63 min; A: water + 0.1% formic acid; B: methanol + 0.1% formic acid; gradient (min/%B) 0/0.5 0.1/0.5 10/80 10.1/99.5 12/99.5
Details: stereoisomer not certain

LC retention time [min]	Structure (SMILES)
4.87	COC(=O)C1=COC(C)C2CN3CCc4c([nH]c5ccccc45)C3CC12 (stereo unspecified)
3.19	O=c1cc(-c2ccc(O)c(O)c2)oc2c(C3OC(CO)C(O)C(O)C3O)c(O)c(C3OCC(O)C(O)C3O)c(O)c12 (stereo unspecified)
2.54	CC(C)CC(NC(=O)CCC(N)C(=O)O)C(=O)O (stereo unspecified)
7.82	CCCCCCCCCCCCCCC(O)C(O)C(N)CO (stereo unspecified)
1.93	Nc1ncnc2c1ncn2C1CC(O)C(CO)O1 (stereo unspecified)
3.72	COc1cc(-c2oc3cc(OC4OC(C)C(O)C(O)C4O)cc(O)c3c(=O)c2O)ccc1O (stereo unspecified)
2.71	NCCCCNC(=O)c1ccccc1
3.64	O=c1c(OC2OC(CO)C(O)C(O)C2O)c(-c2cc(O)c(O)c(O)c2)oc2cc(O)cc(O)c12 (stereo unspecified)
5.48	CC(=O)OC1C(C(=O)O)OC(OC2C(O)C(O)OC(CO)C2O)C(O)C1OC1OC(CO)C(O)C(O)C1O (stereo unspecified)
5.37	COc1cc(-c2oc3cc(O)cc(O)c3c(=O)c2O)cc(O)c1O
3.67	CC1OC(Oc2cc(O)c3c(=O)c(OC4OC(C)C(O)C(O)C4O)c(-c4ccc(O)c(O)c4)oc3c2)C(O)C(O)C1O (stereo unspecified)
8.25	CC1OC(OC2CCC3(C)C(CCC4(C)C3C=CC35OCC6(CCC(C)(C)CC63)C(O)CC45C)C2(C)CO)C(O)C(OC2OC(CO)C(O)C(O)C2O)C1O (stereo unspecified)
4.01	O=C(O)C1OC(Oc2c(-c3ccc(O)c(O)c3)oc3cc(O)cc(O)c3c2=O)C(O)C(O)C1O (stereo unspecified)
10.1	CCCCCCC(O)CC=CCCCCCCCC(=O)O (stereo unspecified)
4.71	COc1cc(C=CC(=O)OC2C(OC3COC(c4c(O)cc5oc(-c6ccc(O)cc6)cc(=O)c5c4O)C(O)C3O)OC(CO)C(O)C2O)ccc1O (stereo unspecified)
3.15	CN1C2CCC1CC(OC(=O)C(O)c1ccccc1)C2 (stereo unspecified)
8.54	CCCCCC=CCC(O)C(O)CCCCCCCC(=O)O (stereo unspecified)
4.57	COc1cc(C(O)C(COC2OC(CO)C(O)C(O)C2O)Oc2c(OC)cc(-c3cc(=O)c4c(O)cc(O)cc4o3)cc2OC)ccc1O (stereo unspecified)
2.08	CC(C)CC(N)C(=O)NCC(=O)O (stereo unspecified)
5.15	O=c1c(-c2ccc(O)cc2)coc2cc(O)ccc12
3.89	COc1ccc2c3c([nH]c2c1)C1CC2C(CC(O)C(OC)C2C(=O)O)CN1CC3 (stereo unspecified)
2.19	COc1ccc2c(c1)OC(OC1OC(C(=O)O)C(O)C(O)C1O)C(O)N2 (stereo unspecified)
3.93	CC(=O)c1cccc2oc(=O)[nH]c12
1.77	C=CC(O)CC(=NOS(=O)(=O)O)SC1OC(CO)C(O)C(O)C1O (stereo unspecified)
10.2	CC(C)=CCc1cc(C2Oc3c(ccc(O)c3CC=C(C)C)C(=O)C2O)ccc1O (stereo unspecified)

LC retention time [min]	Structure (SMILES)
8.85	CCCCCC=CCC=CCC=CCCCCC(=O)OCC(O)COP(=O)([O-])OCC[N+](C)(C)C (stereo unspecified)
5.06	O=C(C=Cc1ccc(O)cc1)NCCc1ccc(O)cc1
1.83	O=C1C(O)Oc2ccccc2N1O (stereo unspecified)
3.84	COc1cc(CC(=O)O)ccc1O
8.39	CCCCCC(O)C(O)CC=CCCCCCCCC(=O)O (stereo unspecified)
8.56	O=c1c(O)c(-c2ccc(O)cc2)oc2ccccc12
5.17	COc1cc(C(O)C(CO)Oc2c(OC)cc(-c3cc(=O)c4c(O)cc(OC5OC(COC(=O)CC(=O)O)C(O)C(O)C5O)cc4o3)cc2OC)ccc1O (stereo unspecified)
2.72	CC(C)CC(N)C(=O)N1CCCC1C(=O)O (stereo unspecified)
1.73	O=C1CCC(C(=O)O)N1 (stereo unspecified)
5.59	COc1cc(C=O)ccc1OC(C)=O
8.35	COc1c(CC=C(C)C)c(O)cc2oc(-c3ccc(O)cc3O)cc12
5.87	CCC1(O)C(=O)OCc2c1cc1n(c2=O)Cc2cc3c([N+](=O)[O-])cccc3nc2-1 (stereo unspecified)
7.75	O=c1cc(-c2ccccc2)oc2ccccc12
10.2	CCCCCC=CC=CC(=O)CCCCCCCC(=O)O
3.3	O=c1cc(-c2ccc(O)cc2)oc2c(C3OC(CO)C(O)C(O)C3O)c(O)c(C3OC(CO)C(O)C(O)C3O)c(O)c12 (stereo unspecified)
2.8	COc1cc(-c2oc3cc(OC4OC(CO)C(O)C(O)C4O)cc(O)c3c(=O)c2OC2OC(CO)C(O)C(O)C2O)cc(OC2OC(CO)C(O)C(O)C2O)c1O (stereo unspecified)
3.95	O=c1cc(-c2ccc(O)cc2)oc2cc(O)c(C3OC(CO)C(O)C(O)C3O)c(O)c12 (stereo unspecified)
3.16	O=C(O)CCC(NCC1(O)OCC(O)C(O)C1O)C(=O)NC(Cc1ccccc1)C(=O)O (stereo unspecified)
1.88	Nc1ncnc2c1ncn2C1OC(CO)C(O)C1O (stereo unspecified)
4.07	C=CC1C(OC2OC(CO)C(O)C(O)C2O)OC=C2C(=O)N3Cc4c([nH]c5ccccc5c4=O)C3CC21 (stereo unspecified)
7.63	CC(C)=CCC=C(C)C1CCC2(C)C1C(O)CC1C3(C)CCC(OC4OC(CO)C(O)C(O)C4O)C(C)(C)C3CCC12C (stereo unspecified)
2.02	CSCC(NC(=O)CCC(N)C(=O)O)C(=O)O (stereo unspecified)
4.48	CC1OC(Oc2c(-c3ccc(O)c(O)c3)oc3cc(OC4OC(CO)C(O)C(O)C4O)cc(O)c3c2=O)C(OC2OC(COC(=O)C=Cc3ccc(O)cc3)C(O)C(O)C2O)C(O)C1O (stereo unspecified)
2.49	CS(=O)CCCCCCCCN (stereo unspecified)
3.96	COc1ccc2cc1Oc1ccc(cc1)CC1=NCCc3cc(OC)c(cc31)Oc1c(OC)c(OC)c([O-])c3c1C(C2)[NH+](C)CC3 (stereo unspecified)

LC retention time [min]	Structure (SMILES)
2.88	CCC(C)C(NC(=O)C(N)C(C)C)C(=O)O (stereo unspecified)
9.09	CC(C)=CCc1cc(C2CC(=O)c3c(O)cc(O)c(CC=C(C)C)c3O2)cc(O)c1O (stereo unspecified)
5.79	CC1OC(OC2C(O)COC(OC3C(C)OC(OC4C(OC(=O)C56CCC(C)(C)CC5C5=CCC7C8(C)CCC(OC9OC(CO)C(O)C(O)C9O)C(C)(CO)C8CCC7(C)C5(C)CC6O)OCC(O)C4O)C(O)C3O)C2O)C(O)C(O)C1O (stereo unspecified)
5.37	O=c1c(O)c(-c2ccc(O)c(O)c2)oc2cc(O)cc(O)c12
5.99	CC1CCC2C(C)C3C(CC4C5CC=C6CC(O)CCC6(C)C5CCC43C)N2C1 (stereo unspecified)
3.71	COc1cc(C=CC(=O)OC2CC(O)(C(=O)O)CC(O)C2O)ccc1O (stereo unspecified)
8.73	CCCCCC=CCC=CCC=CCCCCC(=O)OC(CO)COP(=O)(O)OCCN (stereo unspecified)
10.1	CCCCCCCCC=CCCCCCCCC(=O)OCC(O)COP(=O)([O-])OCC[N+](C)(C)C (stereo unspecified)
4.1	CC1OC(OCC2OC(Oc3c(-c4ccccc4O)oc4cc(O)cc(O)c4c3=O)C(O)C(O)C2O)C(O)C(O)C1O (stereo unspecified)
2.88	CCC(C)C(NC(=O)C([NH3+])C(C)C)C(=O)[O-] (stereo unspecified)
3.82	O=C(O)C1C(O)CCC2CN3CCc4c([nH]c5ccccc45)C3CC21 (stereo unspecified)
3.65	O=c1ccc2ccc(O)c(O)c2o1
2.07	CCC(C)C(NCC1(O)OCC(O)C(O)C1O)C(=O)NC(CCC(=O)O)C(=O)O (stereo unspecified)
7.96	CC1OC(OC2C(OC3CCC4(C)C(CCC5(C)C4CC=C4C6CC(C)(C)CCC6(C(=O)O)CCC45C)C3(C)CO)OCC(O)C2O)C(O)C(O)C1O (stereo unspecified)
4.36	COc1cc(-c2oc3cc(O)cc(O)c3c(=O)c2OC2OC(CO)C(O)C(O)C2O)cc(OC)c1O (stereo unspecified)
1.74	CS(=O)CCCCC(=NOS(=O)(=O)O)SC1OC(CO)C(O)C(O)C1O (stereo unspecified)
6.78	COc1ccc(-c2cc(=O)c3c(O)cc(O)cc3o2)cc1O
4.8	COc1cc(-c2cc(=O)c3c(O)cc(OC4OC(COC(=O)CC(=O)O)C(O)C(O)C4O)cc3o2)ccc1O (stereo unspecified)
1.88	OCC1OC(Oc2ccc(O)cc2)C(O)C(O)C1O (stereo unspecified)
3.52	O=c1cc(-c2ccc(O)cc2)oc2cc(OC3OC(CO)C(O)C(O)C3O)c(C3OC(CO)C(O)C(O)C3O)c(O)c12 (stereo unspecified)
9.89	CC1CCC2(C(=O)O)CCC3(C)C(=CCC4C5(C)CC(O)C(O)C(C)(C)C5CCC43C)C2C1C (stereo unspecified)
7.66	CC1=C(O)C(=O)CC(OC2CC(C)(C)CC3C4=CCC5C6(C)CCC(OC7OC(C(=O)O)C(O)C(O)C7OC7OC(C(=O)O)C(O)C(O)C7OC7OC(C)C(O)C(O)C7O)C(C)(CO)C6CCC5(C)C4(C)CCC23C)O1 (stereo unspecified)
4.57	CC(=O)OCC1OC(Oc2ccc3c(=O)c(-c4ccc(O)cc4)coc3c2)C(O)C(O)C1O (stereo unspecified)
1.67	NC(CCC(=O)NCC(=O)O)C(=O)O (stereo unspecified)

Structure (SMILES)	LC retention time [min]
C=CC1CN2CCC1CC2C(O)c1ccnc2ccccc12 (stereo unspecified)	3.09
CCN1CC2(COC)C(OC(C)=O)CC(OC)C34C5CC6(O)C(OC)C(O)C(OC(C)=O)(C5C6OC(=O)c5ccccc5)C(C(OC)C23)C14 (stereo unspecified)	6.17
CCC12C=CCN3CCC4(C(=C(C(=O)OC)C1)Nc1ccccc14)C32 (stereo unspecified)	5.2
CC1=NCCc2c1[nH]c1cc(O)ccc21	3.06
CCCCCCCCC=CCCCCCCCC(=O)OCC(O)COP(=O)([O-])OCC[NH3+] (stereo unspecified)	10.2
COc1ccc2c(c1)[nH]c1c(C)nccc12	4.11
CCC1CN2CCC3(C(=O)Nc4ccccc43)C2CC1C(=COC)C(=O)OC (stereo unspecified)	4.9
COC1=CC2C3Cc4ccc(OC)c(O)c4C2(CCN3C)CC1=O (stereo unspecified)	3.03
NCCc1c[nH]c2ccccc12	1.79
CC1CCC2C(C)C3C(CC4C5CC=C6CC(OC7OC(CO)C(O)C(OC8OC(CO)C(O)C(O)C8O)C7OC7OC(C)C(O)C(O)C7O)CCC6(C)C5CCC43C)N2C1 (stereo unspecified)	4.95
CC=C1CC(C)C(C)(O)C(=O)OCC2=CCN3CCC(OC1=O)C23 (stereo unspecified)	3.8
O=C1CCCC2C3CCCN4CCCC(CN12)C34 (stereo unspecified)	2.26
